# Experimental data published in US9169254B2, “Spiroimidazolone derivative” (Chugai Seiyaku Kabushiki Kaisha, priority 2009, dated 2015).
# Molecular target: T1, human PTH1 receptor (Homo sapiens, UniProt Q03431)
# T1 sequence (Q03431 27-593): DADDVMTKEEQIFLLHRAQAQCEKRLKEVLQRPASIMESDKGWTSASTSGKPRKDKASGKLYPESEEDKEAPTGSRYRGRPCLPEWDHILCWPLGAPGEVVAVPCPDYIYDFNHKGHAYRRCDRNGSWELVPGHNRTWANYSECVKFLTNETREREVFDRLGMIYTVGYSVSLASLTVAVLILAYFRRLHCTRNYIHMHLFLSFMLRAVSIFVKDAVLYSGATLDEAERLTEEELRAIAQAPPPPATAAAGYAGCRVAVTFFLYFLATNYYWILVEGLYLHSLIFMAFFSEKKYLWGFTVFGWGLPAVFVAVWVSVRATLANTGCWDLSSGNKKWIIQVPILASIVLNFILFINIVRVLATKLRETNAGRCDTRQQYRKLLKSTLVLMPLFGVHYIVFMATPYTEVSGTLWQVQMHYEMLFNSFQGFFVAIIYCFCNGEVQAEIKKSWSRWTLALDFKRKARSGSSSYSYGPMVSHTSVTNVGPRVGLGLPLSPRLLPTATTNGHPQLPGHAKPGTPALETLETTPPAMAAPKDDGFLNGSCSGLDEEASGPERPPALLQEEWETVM
# Assay: In vitro cAMP signal activity in HKRK-B7 cells (LLC-PK1 cells overexpressing the human PTH1 receptor)
# Format: cell-based
# Conditions: HKRK-B7 cells; compound at 1×10^−3 M; cAMP produced as percentage of that produced by hPTH(1-34) at 100 nM
row,SMILES,cAMP production activity (%)
1,"O=C1NC(C2CCCCC2)=NC12CCN(S(=O)(=O)CCc1csc3ccccc13)CC2 [Compound 319, 8-(2-benzo[b]thiophen-3-yl-ethanesulfonyl)-2-cyclohexyl-1,3,8-triaza-spiro[4.5]dec-1-en-4-one]",31
2,"CC1(C)OC[C@H](Cn2ccc3c(/C=C/S(=O)(=O)N4CCC5(CC4)N=C(C4CCCCC4)NC5=O)c(F)ccc32)O1 [Compound 500, 2-cyclohexyl-8-{(E)-2-[1-((S)-2,2-dimethyl-[1,3]dioxolan-4-ylmethyl)-5-fluoro-1H-indol-4-yl]-ethenesulfonyl}-1,3,8-triaza-spiro[4.5]dec-1-en-4-one]",61
3,"Cc1cc(C(=O)N2CCN(CCCN(C)C)CC2)cc(C)c1/C=C/S(=O)(=O)N1CCC2(CC1)N=C(c1cccc(OC(F)(F)F)c1)NC2=O [Compound 397, 8-((E)-2-{4-[4-(3-dimethylamino-propyl)-piperazine-1-carbonyl]-2,6-dimethyl-phenyl}-ethenesulfonyl)-2-(3-trifluoromethoxy-phenyl)-1,3,8-triaza-spiro[4.5]dec-1-en-4-one]",126
4,"CC(C)N(CCNC(=O)Cc1ccc(/C=C/S(=O)(=O)N2CCC3(CC2)N=C(C2CCCCC2)NC3=O)cc1)C(C)C [Compound 571, 2-{4-[(E)-2-(2-cyclohexyl-4-oxo-1,3,8-triaza-spiro[4.5]dec-1-ene-8-sulfonyl)-vinyl]-phenyl}-N-(2-diisopropylamino-ethyl)-acetamide]",39
5,"Cc1cc(C(=O)N2CCSC2)ccc1CCS(=O)(=O)N1CCC2(CC1)N=C(c1cccc(OC(F)(F)F)c1)NC2=O [Compound 417, 8-{2-[2-methyl-4-(thiazolidine-3-carbonyl)-phenyl]-ethanesulfonyl}-2-(3-trifluoromethoxy-phenyl)-1,3,8-triaza-spiro[4.5]dec-1-en-4-one]",97
6,"CC(=O)N(C)c1cc(F)c(/C=C/S(=O)(=O)N2CCC3(CC2)N=C(C2CCC(C)CC2)NC3=O)c(F)c1 (stereo not shown) [Compound 523, N-(3,5-difluoro-4-{(E)-2-[2-(4-methyl-cyclohexyl)-4-oxo-1,3,8-triaza-spiro[4.5]dec-1-ene-8-sulfonyl]-vinyl}-phenyl)-N-methyl-acetamide]",89
7,"Cc1cc(N(C)C(N)=O)cc(C)c1/C=C/S(=O)(=O)N1CCC2(CC1)N=C(CCCCCCCCCCCNC(=O)OC(C)(C)C)NC2=O [Compound 1308, [11-(8-{(E)-2-[2,6-dimethyl-4-(1-methyl-ureido)-phenyl]-ethenesulfonyl}-4-oxo-1,3,8-triaza-spiro[4.5]dec-1-en-2-yl)-undecyl]-carbamic acid tert-butyl ester]",102
8,"CNC(=O)N(C)c1cc(C)c(/C=C/S(=O)(=O)N2CCC3(CC2)N=C(c2cccc(OC(F)(F)F)c2)NC3=O)c(C)c1 [Compound 1014, 1-(3,5-dimethyl-4-{(E)-2-[4-oxo-2-(3-trifluoromethoxy-phenyl)-1,3,8-triaza-spiro[4.5]dec-1-ene-8-sulfonyl]-vinyl}-phenyl)-1,3-dimethyl-urea]",84
9,"Cc1cc(N2C(=O)CNC2=O)cc(C)c1CCS(=O)(=O)N1CCC2(CC1)N=C(c1cccc(OC(F)(F)F)c1)NC2=O [Compound 799, 3-(3,5-dimethyl-4-{2-[4-oxo-2-(3-trifluoromethoxy-phenyl)-1,3,8-triaza-spiro[4.5]dec-1-ene-8-sulfonyl]-ethyl}-phenyl)-imidazolidine-2,4-dione]",7.1
10,"O=C1NC(c2cccc(C(F)(F)F)c2)=NC12CCN(S(=O)(=O)/C=C/c1ccc(NCCO)cc1C(F)(F)F)CC2 [Compound 211, 8-{(E)-2-[4-(2-hydroxy-ethylamino)-2-trifluoromethyl-phenyl]-ethenesulfonyl}-2-(3-trifluoromethyl-phenyl)-1,3,8-triaza-spiro[4.5]dec-1-en-4-one]",60
11,"CC(=O)Nc1ccc(CCS(=O)(=O)N2CCC3(CC2)N=C(c2cccc(C)c2)NC3=O)c(C)c1 [Compound 145, N-{3-Methyl-4-[2-(4-oxo-2-m-tolyl-1,3,8-triaza-spiro[4.5]dec-1-ene-8-sulfonyl)-ethyl]-phenyl}-acetamide]",129
12,"Cc1cc(C(=O)N2CC(F)(F)C(F)(F)C2)ccc1CCS(=O)(=O)N1CCC2(CC1)N=C(c1cccc(C(F)(F)F)c1)NC2=O [Compound 368, 8-{2-[2-methyl-4-(3,3,4,4-tetrafluoro-pyrrolidine-1-carbonyl)-phenyl]-ethanesulfonyl}-2-(3-trifluoromethyl-phenyl)-1,3,8-triaza-spiro[4.5]dec-1-en-4-one]",38
13,"Cc1cc(C(=O)N(C)C)ccc1CCS(=O)(=O)N1CCC2(CC1)N=C(c1ccc(Cl)c(C(F)(F)F)c1)NC2=O [Compound 126, 4-{2-[2-(4-chloro-3-trifluoromethyl-phenyl)-4-oxo-1,3,8-triaza-spiro[4.5]dec-1-ene-8-sulfonyl]-ethyl}-3,N,N-trimethyl-benzamide]",79
14,"Cc1cc(C(=O)N2CCC(O)CC2)cc(C)c1CCS(=O)(=O)N1CCC2(CC1)N=C(c1cccc(OC(F)(F)F)c1)NC2=O [Compound 964, 8-{2-[4-(4-Hydroxy-piperidine-1-carbonyl)-2,6-dimethyl-phenyl]-ethanesulfonyl}-2-(3-trifluoromethoxy-phenyl)-1,3,8-triaza-spiro[4.5]dec-1-en-4-one]",119
15,"CO[C@H]1CC[C@@H](C2=NC3(CCN(S(=O)(=O)c4cccc(Cl)c4)CC3)C(=O)N2)CC1 [Compound 24, 8-(3-chloro-benzenesulfonyl)-2-(4-methoxy-cyclohexyl)-1,3,8-triaza-spiro[4.5]dec-1-en-4-one]",18
16,"Cc1cc(C(=O)N2CCC(C)(O)CC2)cc(C)c1/C=C/S(=O)(=O)N1CCC2(CC1)N=C(c1ccc3cc[nH]c3c1)NC2=O [Compound 1208, 8-{(E)-2-[4-(4-hydroxy-4-methyl-piperidine-1-carbonyl)-2,6-dimethyl-phenyl]-ethenesulfonyl}-2-(1H-indol-6-yl)-1,3,8-triaza-spiro[4.5]dec-1-en-4-one]",65
17,"Cc1cc(N(C)C(N)=O)cc(C)c1CCS(=O)(=O)N1CCC2(CC1)N=C(CCCCCCCCC1(C)COC1)NC2=O [Compound 1031, 1-[3,5-Dimethyl-4-(2-{2-[8-(3-methyl-oxetan-3-yl)-octyl]-4-oxo-1,3,8-triaza-spiro[4.5]dec-1-ene-8-sulfonyl}-ethyl)-phenyl]-1-methyl-urea]",111
18,"Cc1cc(C(=O)N(C)C)ccc1CCS(=O)(=O)N1CCC2(CC1)N=C(c1ccc(C(F)(F)F)c(F)c1)NC2=O [Compound 96, 4-{2-[2-(3-fluoro-4-trifluoromethyl-phenyl)-4-oxo-1,3,8-triaza-spiro[4.5]dec-1-ene-8-sulfonyl]-ethyl}-3,N,N-trimethyl-benzamide]",70
19,"Cc1cc(N(C)C(N)=O)cc(Cl)c1CCS(=O)(=O)N1CCC2(CC1)N=C(C1CCC(C)CC1)NC2=O (stereo not shown) [Compound 683, 1-(3-Chloro-5-methyl-4-{2-[2-(4-methyl-cyclohexyl)-4-oxo-1,3,8-triaza-spiro[4.5]dec-1-ene-8-sulfonyl]-ethyl}-phenyl)-1-methyl-urea]",74
